Where two headings read alike, the source gives them in different places.

The record followed here is patent US20060089325A1, “Antisense modulation of PTP1B expression” (priority 2004, published 2006).

Data set [1] deals with Zucker diabetic fatty (ZDF) rats. The data set can be described thus: ZDF rats, comparison to rosiglitazone and metformin: blood glucose, HbA1c, meal tolerance, body weight. It is filed as in vivo, rat. To be noted: for HbA1c: end of study (5 weeks), saline ZDF 9.2%, lean 5.5. Here is the method: A saline treated group of lean rats was also included in the study. Treatment with all drugs was initiated before the rats became frankly diabetic, which occurs at about 8 weeks of age. Plasma glucose levels were measured 3 and 5 weeks after treatment initiation. Body weight was measured once every week; in addition, HbA1c levels were measured at the end of the study by HPLC. A meal tolerance test was also performed after 4 weeks of treatment.
At the end of 5 weeks, some rats were sacrificed and the liver and epididymal fat pads were removed. The rest of the animals (n=4/group) were examined for changes in plasma glucose levels after cessation of treatment. Glucose measurements during the recovery phase were made 10 days and 5 weeks after stopping treatment. Tissue extracts were subjected to Western blot analysis to measure changes in PTP1B protein levels.

Data set [2] can be described thus: Metformin combination in ZDF rats: hypoglycemia, AST/ALT, lipids, plasma lactate. It is filed as in vivo, rat. The note with it: after 4 weeks of treatment. Here is the method: 500 mg/kg is the maximally effective dose that can be tolerated by these rats.
There was no significant change in AST/ALT, plasma triglyceride or plasma cholesterol levels in any animal group. Because of the risk of lactic acidosis associated with metformin treatment, plasma lactate levels were measured.

Data set [3] has as its system Zucker Diabetic Fatty Rats. The data set can be described thus: Combination of ISIS 113715 and metformin in ZDF rats: plasma glucose (Table 18). It is filed as in vivo, rat.
Description: 500 mg/kg is the maximally effective dose that can be tolerated by these rats. Plasma glucose was measured at week 0 (before treatment) and after weeks 1, 2 and 4 of treatment.
The test system of data set [4] is Zucker diabetic fatty (ZDF) rats. The experiment in a line: ZDF rats, comparison to rosiglitazone and metformin: blood glucose, HbA1c, meal tolerance, body weight. It is filed as in vivo, rat. To be noted: 31 day washout after 5 weeks of treatment.
Data set [5] is described as follows: AST/ALT and plasma cholesterol in aged ZDF rats. The note with it: weeks 1, 2, 3, 4 and 5.
Data set [6] concerns Zucker diabetic fatty (ZDF) rats. The experiment in a line: Fed plasma glucose in Zucker diabetic fatty (ZDF) rats. It is filed as in vivo, rat. To be noted: 25 mg/kg ip two times per week. The text has this:
The leptin receptor deficient Zucker diabetic fatty (ZDF) rat is another useful model for the investigation of type 2 diabetes. Diabetes develops spontaneously in these male rats at ages 8-10 weeks, and is associated with hyperphagia, polyuria, polydipsia, and impaired weight gain, symptoms which parallel the clinical symptoms of diabetes (Phillips M S, et al., 1996, Nat Genet 13, 18-19).
(§1) ZDF/GmiCrl-fa/fa (ZDF) male rats were purchased from Charles River Laboratories (Wilmington, Mass., USA). Six week old ZDF male rats were injected intraperitoneally with oligonucleotides at a dose of 25 mg/kg two times per week for four weeks. […] Saline-injected animals also serve as controls.

The subject of another data set is PTP1B. The experiment in a line: PTP1B protein in HEPG2 cells (Western blot). In kind it is cell-based, human. The note with it: 150 nM, vs no oligo treatment. Here is the method: (§2) There is a high degree of homology between PTP1B and T-cell phosphatase (TC-PTPase, PTPN2), particularly in the catalytic domain. This may present problems in design of small molecule drugs specific for PTP1B. […] HEPG2 human hepatocellular liver carcinoma cells (ATCC, Manassas Va.) are routinely maintained in minimum essential medium (Eagle) with 2 mM L-glutamine and Earle's BSS adjusted to contain 1.5 g/L sodium bicarbonate, 0.1 mM non-essential amino acids, and 1.0 mM sodium pyruvate, […]; fetal bovine serum.
(§3) Levels of PTP1B and TC-PTPase protein were measured by Western blot using mouse monoclonal antibodies to PTP1B (AB-1) and TC-PTPase (AB-1) (CalBiochem/Oncogene sciences, EMD Biosciences, Inc., San Diego Calif.), which specifically identified human target proteins and were used at 0.25 ug/ml. Results were expressed as percent of control (no oligo treatment).

Data set [7] concerns Zucker diabetic fatty (ZDF) rats. The experiment in a line: Intraperitoneal glucose tolerance test (IPGTT) in ZDF rats. In kind it is in vivo, rat. The note with it: for Blood glucose after IPGTT (± SEM) / Insulin excursion after IPGTT (± SEM): 25 mg/kg ip twice weekly. Here is the method: as §1
An intraperitoneal glucose tolerance test (IPGTT) was also performed. Rats received intraperitoneal injections of glucose, and the blood glucose and insulin levels are measured before the glucose challenge and at intervals over 2 hours. The blood glucose levels (in mg/dL) are shown below in Table 1:
The blood glucose levels shown in Table 1 were graphed over time and the area under the curve (AUC) is calculated. A smaller AUC for glucose (smaller blood glucose excursion after glucose challenge) indicates better glucose tolerance. Glucose excursion (AUC) for saline-treated rats was approximately 72,000; for negative control ISIS 141923-treated rats, approximately 80,000, for ISIS 113715-treated rats, approximately 60,000 and for ISIS 106425-treated rats, approximately 63,000.

The test system of another data set is PTP1B protein. The data set can be described thus: PTP1B protein levels in ZDF rats (Western blot). To be noted: 25 mg/kg ip twice weekly four weeks. In kind it is in vivo, rat. Here is the method: as §1
PTP1B protein levels were measured by Western blot analysis.
Background: In western blotting, separated proteins are transferred to a membrane and probed.

The next data set concerns TC-PTPase. The data set can be described thus: TC-PTPase protein in HEPG2 cells (Western blot), specificity. In kind it is cell-based, human. To be noted: 150 nM, vs no oligo treatment. Here is the method: as §2, §3
The conditions of data set [8]: rat, in vivo.
Setting [9] is: 10 day washout after 5 weeks of treatment.
[10] abbreviates: Week 3 of dosing, ISIS 113715 50 mg/kg/week ip, rosiglitazone 10 mg/kg/day, metformin 800 mg/kg/day orally.

In the case of `CN(C)C(=N)N=C(N)N` [Metformin], the “Body weight after treatment” value in data set [1] (5 weeks) is given as “remained unchanged”. The “Blood glucose (approx.)” value in data set [1] (setting [9]) was about 305 mg/dL; in [1] (Pre-treatment), about 135 mg/dL; in data set [1] (setting [10]), about 180 mg/dL; in [4] it was about 330 mg/dL. The compound also returned a HbA1c in data set [1] of 6.1%. Besides, the Plasma lactate levels entry in data set [2] is “dose-dependent increase in lactate”. Also, the “Effect on blood glucose over the study (in words)” value in data set [3] (ISIS 113715 12.5 mg/kg ip twice a week, metformin 100, 300 or 500 mg/kg per day, four weeks) is on record as “lost over time”. Further, the “Plasma glucose mg/dL ± SEM” value in [3] (metformin alone 100 mg/kg per day oral gavage, Week 0 (before treatment)) amounted to 256 ± 29 mg/dL; in data set [3] (metformin alone 100 mg/kg per day oral gavage, Week 1) it was 428 ± 20 mg/dL; in data set [3] (metformin alone 100 mg/kg per day oral gavage, Week 2), 504 ± 20 mg/dL; in data set [3] (metformin alone 100 mg/kg per day oral gavage, Week 3) it was 494 ± 18 mg/dL; in [3] (metformin alone 100 mg/kg per day oral gavage, Week 4) it was 393 ± 71 mg/dL; in data set [3] (metformin alone 300 mg/kg per day oral gavage, Week 0 (before treatment)), 251 ± 27 mg/dL. For the same compound, the “Plasma glucose mg/dL ± SEM” value in [3] (metformin alone 300 mg/kg per day oral gavage, Week 1) is recorded as 323 ± 33 mg/dL; in data set [3] (metformin alone 300 mg/kg per day oral gavage, Week 2), 415 ± 29 mg/dL; in data set [3] (metformin alone 300 mg/kg per day oral gavage, Week 3), 449 ± 11 mg/dL; in data set [3] (metformin alone 300 mg/kg per day oral gavage, Week 4), 448 ± 42 mg/dL; in [3] (metformin alone 500 mg/kg per day oral gavage, Week 0 (before treatment)) it was 252 ± 28 mg/dL; in [3] (metformin alone 500 mg/kg per day oral gavage, Week 1), 244 ± 56 mg/dL. In addition, the “Plasma glucose mg/dL ± SEM” value in [3] (metformin alone 500 mg/kg per day oral gavage, Week 2) came out at 344 ± 59 mg/dL; in data set [3] (metformin alone 500 mg/kg per day oral gavage, Week 3) it was 374 ± 53 mg/dL; in [3] (metformin alone 500 mg/kg per day oral gavage, Week 4) it was 443 ± 35 mg/dL.

Turning to `CN(CCOc1ccc(CC2SC(=O)NC2=O)cc1)c1ccccn1` (centres unmarked) [Rosiglitazone], the Plasma cholesterol levels result in [5] is given as “no significant effects”. Further, the “Blood glucose (approx.)” value in data set [1] (setting [9]) was about 260 mg/dL; in [1] (Pre-treatment) it was about 140 mg/dL; in data set [1] (setting [10]), about 110 mg/dL; in data set [4], about 270 mg/dL. In addition, in data set [1], the HbA1c was determined as 5.4%.

For “ISIS 141923: CCTTCCCTGAAGGTTCCTCC (SEQ ID NO: 20), six-mismatch control of ISIS 113715, negative oligonucleotide control (chemistry not given here)”, the “Fed plasma glucose levels” value in data set [6] (week 0) is “approximately 306±59 mg/dL”; in data set [6] (week 1), about 391 ± 35 mg/dL; in [6] (week 2) it was about 402 ± 37 mg/dL; in [6] (week 3), about 411 ± 27 mg/dL; in data set [6] (week 4), about 392 ± 11 mg/dL. Moreover, the “Reduction of PTP1B protein levels” value in the data set with PTP1B is on record as “reduced neither PTP1B nor TC-PTPase levels”. In addition, the “Blood glucose after IPGTT (± SEM)” value in data set [7] (0 min) is reported as 330 ± 39 mg/dL; in data set [7] (5 min), 543 ± 43 mg/dL; in data set [7] (15 min), 703 ± 60 mg/dL; in data set [7] (30 min), 791 ± 52 mg/dL; in [7] (60 min), 705 ± 51 mg/dL; in data set [7] (120 min) it was 594 ± 28 mg/dL. The “Insulin excursion after IPGTT (± SEM)” value is 2.2 ± .30 ng/mL in [7] (0 min); 2.3 ± .84 ng/mL in [7] (5 min); 4.0 ± .22 ng/mL in data set [7] (15 min); 4.2 ± .37 ng/mL in data set [7] (30 min); 2.4 ± .66 ng/mL in data set [7] (60 min); 1.7 ± .60 ng/mL in [7] (120 min). Moreover, the “Insulin AUC after IPGTT” value in [7] (saline approximately 300) was about 320. Also, in [7] (saline approximately 72,000), the “Glucose excursion (AUC) after IPGTT” value is listed as “approximately 80,000”. Also, the “PTP1B protein levels, decrease vs saline-treated animals” value in the data set on PTP1B protein is 10%. For the same compound, the “Reduction of TC-PTPase levels” value in the data set on TC-PTPase is reported as “reduced neither PTP1B nor TC-PTPase levels”. Besides, in [8], the AST/ALT result was “no significant effects”. Besides, the Plasma cholesterol levels result in data set [8] is recorded as “no significant effects”.
